Results: PubChem BioAssay (NCI)
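Exposure lasted 48 hours, with cells grown in 96-well plates and compounds tested at five concentrations. Here, GI50 denotes the concentration required for 50% inhibition of growth. TGI denotes the concentration required for complete inhibition of growth.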

Tests used:
Assay in all cases: DTP human tumour cell line panel, 48 h
786-0 renal = tested on: 786-0 renal
A498 renal = tested on: A498 renal
A549 NSCLC = tested on: A549 NSCLC
ACHN renal = tested on: ACHN renal
BT-549 breast = tested on: BT-549 breast
CAKI-1 renal = tested on: CAKI-1 renal
CCRF-CEM leukemia = tested on: CCRF-CEM leukemia
COLO 205 colon = tested on: COLO 205 colon
DU-145 prostate = tested on: DU-145 prostate
HCC-2998 colon = tested on: HCC-2998 colon
HCT-116 colon = tested on: HCT-116 colon
HCT-15 colon = tested on: HCT-15 colon
HL-60(TB) leukemia = tested on: HL-60(TB) leukemia
HOP-62 NSCLC = tested on: HOP-62 NSCLC
HOP-92 NSCLC = tested on: HOP-92 NSCLC
HS 578T breast = tested on: HS 578T breast
HT29 colon = tested on: HT29 colon
IGROV1 ovarian = tested on: IGROV1 ovarian
K-562 leukemia = tested on: K-562 leukemia
KM12 colon = tested on: KM12 colon
LOX IMVI melanoma = tested on: LOX IMVI melanoma
M14 melanoma = tested on: M14 melanoma
MALME-3M melanoma = tested on: MALME-3M melanoma
MCF7 breast = tested on: MCF7 breast
MDA-MB-231 breast = tested on: MDA-MB-231 breast
MDA-MB-435 = tested on: MDA-MB-435
MOLT-4 leukemia = tested on: MOLT-4 leukemia
NCI-H226 lung = tested on: NCI-H226 lung
NCI-H23 lung = tested on: NCI-H23 lung
NCI-H460 lung = tested on: NCI-H460 lung
NCI-H522 lung = tested on: NCI-H522 lung
NCI/ADR-RES ovarian = tested on: NCI/ADR-RES ovarian
OVCAR-3 ovarian = tested on: OVCAR-3 ovarian
OVCAR-4 ovarian = tested on: OVCAR-4 ovarian
OVCAR-5 ovarian = tested on: OVCAR-5 ovarian
OVCAR-8 ovarian = tested on: OVCAR-8 ovarian
PC-3 prostate = tested on: PC-3 prostate
RPMI-8226 leukemia = tested on: RPMI-8226 leukemia
RXF 393 renal = tested on: RXF 393 renal
SF-268 CNS = tested on: SF-268 CNS
SF-295 CNS = tested on: SF-295 CNS
SF-539 CNS = tested on: SF-539 CNS
SK-MEL-2 melanoma = tested on: SK-MEL-2 melanoma
SK-MEL-28 melanoma = tested on: SK-MEL-28 melanoma
SK-MEL-5 melanoma = tested on: SK-MEL-5 melanoma
SK-OV-3 ovarian = tested on: SK-OV-3 ovarian
SN12C renal = tested on: SN12C renal
SNB-19 CNS = tested on: SNB-19 CNS
SNB-75 CNS = tested on: SNB-75 CNS
SR leukemia = tested on: SR leukemia
SW-620 colon = tested on: SW-620 colon
T-47D breast = tested on: T-47D breast
TK-10 renal = tested on: TK-10 renal
U251 CNS = tested on: U251 CNS
UACC-257 melanoma = tested on: UACC-257 melanoma
UACC-62 melanoma = tested on: UACC-62 melanoma
UO-31 renal = tested on: UO-31 renal
EKVX NSCLC = tested on: EKVX NSCLC

CN[C@@H](C)C(=O)N[C@H](C(=O)N1CCC[C@H]1C(=O)Nc1snnc1-c1ccccc1)C1CCCCC1
GI50 (786-0 renal): 62.8 µM | TGI (786-0 renal): > 100 µM | GI50 (A498 renal): 19.5 µM | TGI (A498 renal): 57.3 µM | GI50 (A549 NSCLC): 71.6 µM | TGI (A549 NSCLC): > 100 µM | GI50 (ACHN renal): 52.7 µM | TGI (ACHN renal): > 100 µM | TGI (BT-549 breast): > 81.5 µM | GI50 (CAKI-1 renal): 68 µM | TGI (CAKI-1 renal): > 100 µM | GI50 (CCRF-CEM leukemia): 32.3 µM | TGI (CCRF-CEM leukemia): > 100 µM | GI50 (COLO 205 colon): 21.6 µM | TGI (COLO 205 colon): 42.1 µM | GI50 (DU-145 prostate): 65.4 µM | TGI (DU-145 prostate): > 100 µM | GI50 (HCC-2998 colon): 25.6 µM | TGI (HCC-2998 colon): 60.8 µM | GI50 (HCT-116 colon): 41.6 µM | TGI (HCT-116 colon): > 100 µM | GI50 (HCT-15 colon): 58.3 µM | TGI (HCT-15 colon): > 100 µM | GI50 (HL-60(TB) leukemia): 21.7 µM | TGI (HL-60(TB) leukemia): 48.1 µM | GI50 (HOP-62 NSCLC): 26.5 µM | TGI (HOP-62 NSCLC): > 100 µM | GI50 (HOP-92 NSCLC): 3.06 µM | TGI (HOP-92 NSCLC): 27.7 µM | GI50 (HS 578T breast): 72.8 µM | TGI (HS 578T breast): > 100 µM | GI50 (HT29 colon): 31.7 µM | TGI (HT29 colon): > 67.3 µM | GI50 (IGROV1 ovarian): 76.9 µM | TGI (IGROV1 ovarian): > 100 µM | GI50 (K-562 leukemia): 24.4 µM | TGI (K-562 leukemia): 57.7 µM | GI50 (KM12 colon): 34.4 µM | TGI (KM12 colon): > 100 µM | GI50 (LOX IMVI melanoma): 35.3 µM | TGI (LOX IMVI melanoma): > 83.3 µM | GI50 (M14 melanoma): 24.6 µM | TGI (M14 melanoma): 55.8 µM | GI50 (MALME-3M melanoma): 11.5 µM | TGI (MALME-3M melanoma): 26.2 µM | GI50 (MCF7 breast): 59.1 µM | TGI (MCF7 breast): > 100 µM | GI50 (MDA-MB-231 breast): 0.778 µM | TGI (MDA-MB-231 breast): 21.4 µM | GI50 (MDA-MB-435): 32.1 µM | TGI (MDA-MB-435): > 100 µM | GI50 (MOLT-4 leukemia): 36.6 µM | TGI (MOLT-4 leukemia): > 100 µM | GI50 (NCI-H226 lung): > 100 µM | TGI (NCI-H226 lung): > 100 µM | GI50 (NCI-H23 lung): 38.4 µM | TGI (NCI-H23 lung): > 100 µM | GI50 (NCI-H460 lung): 58.1 µM | TGI (NCI-H460 lung): > 100 µM | GI50 (NCI-H522 lung): 18.3 µM | TGI (NCI-H522 lung): 53.4 µM | GI50 (NCI/ADR-RES ovarian): 66.1 µM | TGI (NCI/ADR-RES ovarian): > 100 µM | GI50 (OVCAR-3 ovarian): 58.5 µM | TGI (OVCAR-3 ovarian): > 100 µM | GI50 (OVCAR-4 ovarian): 5.58 µM | TGI (OVCAR-4 ovarian): 99.6 µM | GI50 (OVCAR-5 ovarian): > 100 µM | TGI (OVCAR-5 ovarian): > 100 µM | GI50 (OVCAR-8 ovarian): 13.8 µM | TGI (OVCAR-8 ovarian): 21.3 µM | GI50 (PC-3 prostate): 48.6 µM | TGI (PC-3 prostate): > 100 µM | GI50 (RPMI-8226 leukemia): 43.9 µM | TGI (RPMI-8226 leukemia): > 100 µM | GI50 (RXF 393 renal): 5.18 µM | TGI (RXF 393 renal): 40.1 µM | GI50 (SF-268 CNS): > 86.1 µM | TGI (SF-268 CNS): > 100 µM | GI50 (SF-295 CNS): 34.4 µM | TGI (SF-295 CNS): > 100 µM | GI50 (SF-539 CNS): 1.08 µM | TGI (SF-539 CNS): > 38.6 µM | GI50 (SK-MEL-2 melanoma): 27.4 µM | TGI (SK-MEL-2 melanoma): > 63.9 µM | GI50 (SK-MEL-28 melanoma): 23 µM | TGI (SK-MEL-28 melanoma): 61.6 µM | GI50 (SK-MEL-5 melanoma): 16.7 µM | TGI (SK-MEL-5 melanoma): 33.9 µM | GI50 (SK-OV-3 ovarian): 0.0244 µM | TGI (SK-OV-3 ovarian): 0.723 µM | GI50 (SN12C renal): 74.9 µM | TGI (SN12C renal): > 100 µM | GI50 (SNB-19 CNS): > 100 µM | TGI (SNB-19 CNS): > 100 µM | GI50 (SNB-75 CNS): 25.4 µM | TGI (SNB-75 CNS): > 94.4 µM | GI50 (SR leukemia): 20.7 µM | TGI (SR leukemia): > 69.7 µM | GI50 (SW-620 colon): > 100 µM | TGI (SW-620 colon): > 100 µM | GI50 (T-47D breast): 57.5 µM | TGI (T-47D breast): > 100 µM | GI50 (TK-10 renal): > 59.9 µM | TGI (TK-10 renal): > 94.9 µM | GI50 (U251 CNS): 36.3 µM | TGI (U251 CNS): > 100 µM | GI50 (UACC-257 melanoma): 0.405 µM | TGI (UACC-257 melanoma): 25.5 µM | GI50 (UACC-62 melanoma): 16.2 µM | TGI (UACC-62 melanoma): 34.2 µM | GI50 (UO-31 renal): 97.4 µM | TGI (UO-31 renal): > 100 µM

CCOC(=O)C1=C(C)OC2(O)C=CC(O)=C3C(=O)N(c4ccccc4)C(=O)C312 (configuration not stated)
TGI (786-0 renal): > 100 µM | TGI (A549 NSCLC): > 100 µM | TGI (ACHN renal): > 100 µM | TGI (BT-549 breast): 70.5 µM | TGI (CAKI-1 renal): > 100 µM | TGI (COLO 205 colon): > 100 µM | TGI (DU-145 prostate): > 100 µM | TGI (EKVX NSCLC): > 100 µM | TGI (HCC-2998 colon): 73.9 µM | TGI (HCT-116 colon): > 100 µM | TGI (HCT-15 colon): > 100 µM | TGI (HL-60(TB) leukemia): > 100 µM | TGI (HOP-62 NSCLC): > 100 µM | TGI (HOP-92 NSCLC): > 100 µM | TGI (HS 578T breast): 61.7 µM | TGI (HT29 colon): 76.7 µM | TGI (IGROV1 ovarian): 68.2 µM | TGI (K-562 leukemia): > 100 µM | TGI (KM12 colon): > 100 µM | TGI (LOX IMVI melanoma): 52.9 µM | TGI (M14 melanoma): > 100 µM | TGI (MALME-3M melanoma): 41.7 µM | TGI (MCF7 breast): 79.4 µM | TGI (MDA-MB-231 breast): > 100 µM | TGI (MDA-MB-435): > 100 µM | TGI (MOLT-4 leukemia): > 100 µM | TGI (NCI-H226 lung): 80.3 µM | TGI (NCI-H23 lung): > 100 µM | TGI (NCI-H460 lung): > 100 µM | TGI (NCI-H522 lung): 35.6 µM | TGI (NCI/ADR-RES ovarian): > 100 µM | TGI (OVCAR-3 ovarian): > 100 µM | TGI (OVCAR-4 ovarian): > 100 µM | TGI (OVCAR-5 ovarian): > 100 µM | TGI (OVCAR-8 ovarian): > 100 µM | TGI (PC-3 prostate): > 100 µM | TGI (RPMI-8226 leukemia): 86.1 µM | TGI (RXF 393 renal): 47.7 µM | TGI (SF-268 CNS): > 100 µM | TGI (SF-295 CNS): > 100 µM | TGI (SF-539 CNS): 68.2 µM | TGI (SK-MEL-2 melanoma): 68.4 µM | TGI (SK-MEL-28 melanoma): 49.7 µM | TGI (SK-OV-3 ovarian): > 100 µM | TGI (SN12C renal): > 100 µM | TGI (SNB-19 CNS): 65.3 µM | TGI (SNB-75 CNS): 87.8 µM | TGI (SR leukemia): 53.2 µM | TGI (T-47D breast): > 100 µM | TGI (TK-10 renal): > 100 µM | TGI (U251 CNS): > 100 µM | TGI (UACC-257 melanoma): 99.4 µM | TGI (UACC-62 melanoma): 76.7 µM | TGI (UO-31 renal): 65.4 µM
